Measured values: patent publication US6630123B1, “Method to enhance tissue accumulation of radiolabeled compounds” (Board of Supervisors of Louisiana State University and …, priority 1997, dated 2003)
Values belong to the molecule of their own block, whether it stands above or below them. Where no end group is shown, it is not given here.

Legend:
[1] = cited from earlier work
[2] = tested on: T47D breast cancer cell line; experiment: Specific binding of radiolabeled estradiol with time, T47D; assay type: cell-based, human; conditions: T-47D
Experimental: (§1) To follow the time of uptake of a steroid hormone, three cell lines were incubated with a radiolabeled estrogen using procedures similar to those of Example 2. Three breast cancer cell lines were used; MCF-7 (ATCC No. HTB-22), T47D (ATCC No. HTB-133), and ZR-75-1 (ATCC No. CRL-1500). The estrogen used was 17-β-estradiol, the major secreted estrogen in humans. The radiolabeled compound was ^125I-17-β-estradiol, which was either purchased from New England Nuclear or synthesized by the following procedure: A 10 ml Sephadex G-10 column was equilibrated for 1 hr with 0.1 M PBS. A solution was prepared of 12.5 μg estradiol conjugate (BL-43), 25 μl methanol, 50 μl 0.05 M phosphate buffer pH 7.5, 3 mCi Na^125I, and 25 μl of a mixture of 10 mg chloramine-T and 10 ml 0.05 M phosphate buffer. After mixing for 40 sec, 25 μl of sodium metabisulfite 20 mg/10 ml 0.05 M Phosphate buffer was added and mixed an additional 40 sec. The mixture was then added to the Sephadex column and eluted first with 0.1 M PBS. Finally, the radiolabeled estradiol was eluted with 0.1 M PBS and 1,4 Dioxane (70:30).
(§2) The standard binding procedure described in Example 2 was used except that radiolabeled estradiol was used as the ligand with 1000× excess non-radioactive estradiol as the competitor. Unlike peptides that initially must bind on the plasma membrane, steroids bind only to intracellular receptors. Thus no radioactivity on the membrane should be found.

[3] = tested on: ZR-75-1 breast cancer cell line; experiment: Specific binding of radiolabeled estradiol with time, ZR-75-1; assay type: cell-based, human
Experimental: as §1, §2

[4] = tested on: MCF-7 breast cancer cell line; experiment: Specific binding of radiolabeled estradiol with time, MCF-7; assay type: cell-based, human
Experimental: as §1, §2

[5] = tested on: neuroendocrine cancers expressing the somatostatin receptor; experiment: Pilot clinical trial of monthly 180 mCi doses; assay type: in vivo, human; conditions: ten patients
Experimental: For six months, pilot clinical trials were conducted in ten human patients with progressive metastatic indolent and symptomatic neuroendocrine cancers expressing the somatostatin receptor. […] The first monthly dose was a bolus injection of 180 mCi. The second monthly dose was infusion of 180 mCi over 72 hr. The third monthly dose was infusion of 180 mCi over 24 hr. Thereafter, all monthly doses were infusion of 180 mCi over 24 hr. Clinical benefits (as evidenced by reduced pain, weight gain, reduced malaise, etc.) occurred in 6 of the 10 neuroendocrine (carcinoid/islet cell) patients. Partial radiographic responses (greater than 50% reduction in the product of perpendicular tumor diameters) occurred in 2 patients, and significant tumor necrosis developed in 7 of the 10 neuroendocrine patients. Treatment-related toxicity included 2 Grade III platelet, 1 Grade II WBC, 1 Grade I WBC and 2 Grade I Hb on the NCI (National Cancer Institute) grading scale.

[6] = tested on: tumor in the left side of the neck (metastatic small cell carcinoma); conditions: in vivo
Experimental: During and after each administration of the last eight doses, a tumor in the left side of the neck was monitored for radioligand uptake with an ion chamber survey meter, a Victoreen 450P ion chamber, which measures external gamma dose rates. Administration of the initial seven doses were by bolus inject ion. The last three doses were delivered by infusion with various activities of radioligand.
The external gamma dose rates from radioligand accumulation in the neck tumor area were measured immediately and 24 hr after injection. After the treatment of the fifth month, the patient was monitored for radioligand uptake for an extended period—at 2, 4, and 8 days after the injection.
Four months after the final bolus dose, the first dose by infusion (“Infusion 1”) was administered. A dose equivalent to the previous bolus dose (175.9 mCi) was given, but the radioligand was administered by infusion over 72 hr at a constant rate of 2.5 mCi/hr.
One month later, in “Infusion 2,” the total dose was increased to 389.2 mCi. By infusion, 189.8 mCi of the radioligand was given over the first 24 hr, 108.6 mCi over the second 24 hr, and 90.8 mCi over the third 24 hr. For each 24 hr period, the infusion rate was kept constant.
One month later, a third dose was administered by infusion (“Infusion 3”). A dose of 301 mCi was infused the first 24 hr period. […]

[7] = tested on: human placental-derived vascular endothelial cells; experiment: Binding and internalization in angiogenic vascular endothelial cells; assay type: cell-based; conditions: 500,000 cells, 500,000 cpm, acid wash, FIG. 17
Text: Human placental-derived vascular endothelial cells were used to assay for cell binding of the somatostatin analog, ^125I-JIC-2D. The radioligand, a somatostatin analog, ^125I-JIC-2D, was made by solid phase peptide synthesis as described in U.S. Pat. No. 5,597,894. This peptide has an amino acid sequence of the following: D-Lys-D-Tyr-D-Lys-D-Tyr-D-Lys-C[Cys-Phe-D-Trp-Lys-Thr-Cys]-Thr-NH2. The cells were obtained by growing discs of human placental veins in fibrinclots for 14 days. […] These discs and their angiogenic sprouts are harvested mechanically and dissociated by vortexing. The vein discs are then discarded and the endothelial cells pooled. Cells were harvested, counted with a hemocytometer, and resuspended in binding buffer (Minimum Essential Medium (MEM), 10 mM Hepes, 0.01% BSA). A standard assay used 500,000 cells in 1 ml of binding buffer. […] At the termination of the experiment, the incubation medium was removed, the cells were rinsed twice with Hanks balanced salt solution (HBSS), and the radioactivity in the cells determined using a gamma counter. This level of radioactivity represents total binding, which includes both membrane-bound and internalized fractions. Specific binding was determined by calculating the difference in the levels of measured radioactivity without the unlabeled competitor minus the radioactivity with the unlabeled competitor. […]

[8] = tested on: human placental vein discs (angiogenic vascular tissue); experiment: Human Placental Vein Angiogenesis Model; assay type: cell-based; conditions: 50 μCi/mL (or equivalent amounts)
Text: Watson et al., “Up-Regulation of Somatostatin Receptor Subtype 2. (SST-2) mRNA Occurs During the Transformation of Human Endothelium to the Angiogenic Phenotype,” Paper Presented at the 12th International Symposium on Regulatory Peptides, Copenhagen, Denmark, September 1996; J. C. Watson et al., “SST-2 Gene Expression Appears During Human Angiogenesis,” Regulatory Peptides, vol. 64, p. 206 (Abstract) (1996); and J. C. Watson et al., “Breast Cancer Increases Initiation of Angiogenesis Without Accelerating Neovessel Growth Rate,” Surgery, vol. 122, pp. 508-14 (1997). Human placental veins were cut into discs of 2 mm diameter and were incorporated into a 0.3% fibrinogen gel. This gel was then overlaid with tissue culture media containing 10-20% fetal calf serum (FCS). Under normal conditions, endothelial cords will begin to sprout from the transected cut edge of the vein discs within six days.
These vein discs were placed into wells of three separate culture plates. One culture plate, the control sample, was allowed to grow without treatment. […] The discs were then incubated for fourteen days. After 14 days the culture plates were examined for the number of wells in which angiogenic growth was initiated. […] The molar concentration of the radiolabeled somatostatin analog added to the culture plates was in the femtomolar range (10^−15). This concentration is 1000× or more below the concentration of unlabeled somatostatin analog that is known to inhibit angiogenesis; a concentration of 10^−5 M to 10^−8 M. Thus any effect was due to the radiolabel and not just the presence of the somatostatin analog. […] Only the radiolabel connected to the somatostatin analog would be incorporated into the DNA. Thus the greater decrease is due to this incorporation and the Auger emission on DNA.
Using a digital image analyzer, the mean area of the sprouting tissue surrounding the discs was measured.
To measure the growth rate of angiogenic vascular tissue, every two days during the 14-day incubation period, the length of sprouts were measured. […]

IMR-32 cells = experiment: Nuclear translocation, Percoll density gradient fractionation; assay type: cell-based, human
Experimental: The cells were washed twice in media at 4° C. and resuspended in cold isotonic sucrose. The labeled cells were passed through a ballbearing homogenizer three times to disrupt cell membranes while leaving approximately 95% of the cell nuclei intact, according to the method of Balch et al., Arch. Biochem. Biophys., vol. 240, p. […] The cell homogenate was mixed with Percoll to give a final concentration of 0.292% Percoll and spun at 20,400 rpm in a Beckman 40.2 rotor for 45 min to generate a density gradient. Density marker beads (Pharmacia) were used to indicate density levels in the tube. The contents of the tube were fractionated in an ISCO Density Gradient Fractionator. The resulting tubes were assayed for content of radiolabeled somatostatin or analogs, DNA to indicate nuclei, protein, the plasma membrane marker 5′-nucleotidase, and the lysosome marker N-acetylglucosaminidase. The usual assumption was made that the radioactivity measured in fractions rich in a certain cell component was in fact associated with that component; e.g., the radioactivity measured in a fraction rich in plasma membrane was due to association of the radiolabeled compound with the plasma membrane.

Molecule: CC(C)[C@@H]1NC(=O)[C@H](CCCCN)NC(=O)[C@@H](Cc2c[nH]c3ccccc23)NC(=O)[C@H](Cc2ccc(O)cc2)NC(=O)[C@@H](NC(=O)[C@H](N)Cc2ccc3ccccc3c2)CSSC[C@@H](C(=O)N[C@H](C(N)=O)[C@@H](C)O)NC1=O [lanreotide]
biologic half-life [1]: 60-90 min

Molecule: ^125I-17-β-estradiol
Specific Binding ([2]; 1 Hr): 401 CPM
Specific Binding ([2]; 4 Hr): 506 CPM
Specific Binding ([2]; 24 Hr): 532 CPM
Specific Binding ([2]; 48 Hr): 455 CPM
Specific Binding ([3]; ZR-75-1, 1 Hr): 4102 CPM
Specific Binding ([3]; ZR-75-1, 4 Hr): 4865 CPM
Specific Binding ([3]; ZR-75-1, 24 Hr): 3370 CPM
Specific Binding ([3]; ZR-75-1, 48 Hr): 3057 CPM
Specific Binding ([4]; MCF-7, 1 Hr): 1605 CPM
Specific Binding ([4]; MCF-7, 4 Hr): 2253 CPM
Specific Binding ([4]; MCF-7, 24 Hr): 4109 CPM
Specific Binding ([4]; MCF-7, 48 Hr): 731 CPM

half-life of exponential decay of tumor radioactivity (approached physical half-life of the radioligand) ([6]; female, human): ~67.3 h
Molecule: C[C@@H](O)[C@@H]1NC(=O)[C@H](CCCCN)NC(=O)[C@@H](Cc2c[nH]c3ccccc23)NC(=O)[C@H](Cc2ccccc2)NC(=O)[C@@H](NC(=O)[C@@H](Cc2ccccc2)NC(=O)CN2CCN3CCN(CC(=O)O)CC(=O)[O][111In]([O]C(=O)C3)[O]C(=O)C2)CSSC[C@@H](C(=O)N[C@H](CO)[C@@H](C)O)NC1=O [^111In-pentetreotide, ^111In-DTPA-D-Phe^1-octreotide]
Treatment-related toxicity: Grade I Hb (NCI scale), number of cases [5]: 2
Treatment-related toxicity: Grade I WBC (NCI scale), number of cases [5]: 1
Treatment-related toxicity: Grade II WBC (NCI scale), number of cases [5]: 1
Treatment-related toxicity: Grade III platelet (NCI scale), number of cases [5]: 2
persistence of tumor foci on gamma camera scintigraphy [6]: still identifiable by gamma scintigraphy thirteen days after completion of the last infusion dose

Molecule: D-Lys-D-Tyr-D-Lys-D-Tyr-D-Lys-C[Cys-Phe-D-Trp-Lys-Thr-Cys]-Thr-NH2 [^125I-JIC-2D]
binding and internalization [7]: the vast majority of the radioligand was internalized into the cell

Molecule: ^111In-Cl
growth rate (mm/day) of angiogenic vascular tissue ([8]; 14-day incubation, FIG. 20): substantially below that of the control
% initiation of angiogenic growth ([8]; 14 days, FIG. 18): substantially less than the control plate
vessel area (mm^2) of sprouting tissue ([8]; 14 days, FIG. 19): substantially less

Molecule: ^125I-somatostatin: radiolabeled native somatostatin, very short-lived peptide (AGCKNFFWKTFTSC; ends and bridges not checked; also: 125I label, site not given here; UniProt P61278 103-116, looked up)
cellular distribution of radioactivity (membrane vs nuclear fractions) (IMR-32 cells; 1 hr incubation): both membrane binding and small amounts of nuclear binding
cellular distribution of radioactivity (membrane vs nuclear fractions) (IMR-32 cells; 4 hr incubation): plasma membrane binding appeared to have peaked and the nuclear fraction was dissipating
cellular distribution of radioactivity (membrane vs nuclear fractions) (IMR-32 cells; 24 hr incubation): essentially no plasma membrane or nuclear binding was seen
